Laboratory results published in the supplement of paper PMC10307832.

Tests used:
Experiment in all cases: relative viability (nuclei count vs DMSO), 5 days (fraction); higher = more cells survive
[1] = compound: OCc1c[nH]c2ccccc12 [Indole-3-carbinol] + COc1cc2c(Oc3ccc(NC(=O)C4(C(=O)Nc5ccc(F)cc5)CC4)cc3F)ccnc2cc1OCCCN1CCOCC1 [Foretinib] (partner 0.25 µM)
How it was run: (§1)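 Nuclei were stained with Hoechst during a one-step fixation (final 0.05% Triton X-100, 1% formaldehyde, 1 ug/ml Hoechst) carried out 5 days after dosing, then counted on 4× images. The cells, lung cancer lines in 1536-well plates, had been dosed by pin tool the day after seeding with one drug alone or a fixed anchor-drug dose plus five library-drug doses (not always all listed) in √10 steps. Relative viability is the nuclei count in treated wells divided by that in vehicle wells, and each value is the median of duplicate plates.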

[2] = compound: OCc1c[nH]c2ccccc12 [Indole-3-carbinol] + C[C@]1(O)C[C@@H](c2nc(-c3ccc4ccc(-c5ccccc5)nc4c3)c3c(N)nccn32)C1 [Linsitinib] (partner 1 µM)
How it was run: as §1

[3] = compound: OCc1c[nH]c2ccccc12 [Indole-3-carbinol] + C[C@@H](Oc1cc(-c2cnn(C3CCNCC3)c2)cnc1N)c1c(Cl)ccc(F)c1Cl [Crizotinib] (partner 1 µM)
How it was run: as §1

[4] = compound: OCc1c[nH]c2ccccc12 [Indole-3-carbinol] + N=C(N)NC(=N)NCCc1ccccc1 [Phenformin] (partner 250 µM)
How it was run: as §1

Indole-3-carbinol = compound: OCc1c[nH]c2ccccc12 [Indole-3-carbinol]
How it was run: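 Viability here means nuclei in treated wells divided by nuclei in vehicle wells, reported as the median across plates. Only plates with control CV below 25% and at least one doubling passed. Lung cancer cell lines in 1536-well plates were exposed to five √10-spaced library-drug doses for 5 days and counted from 4× Hoechst images in MetaXpress.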

| Cell Line | relative viability ([1]; first compound 0.253 µM) | relative viability ([1]; first compound 0.8 µM) | relative viability ([1]; first compound 2.53 µM) | relative viability ([1]; first compound 8 µM) | relative viability ([2]; first compound 0.253 µM) | relative viability ([2]; first compound 0.8 µM) | relative viability ([2]; first compound 2.53 µM) | relative viability ([2]; first compound 8 µM) | relative viability ([3]; first compound 0.253 µM) | relative viability ([3]; first compound 0.8 µM) | relative viability ([3]; first compound 2.53 µM) | relative viability ([3]; first compound 8 µM) | relative viability ([4]; first compound 0.253 µM) | relative viability ([4]; first compound 0.8 µM) | relative viability ([4]; first compound 2.53 µM) | relative viability ([4]; first compound 8 µM) | relative viability (Indole-3-carbinol; 0.253 µM) | relative viability (Indole-3-carbinol; 0.8 µM) | relative viability (Indole-3-carbinol; 2.53 µM) | relative viability (Indole-3-carbinol; 8 µM) |
| --- | --- | --- | --- | --- | --- | --- | --- | --- | --- | --- | --- | --- | --- | --- | --- | --- | --- | --- | --- | --- |
| EMC-BAC-2 | 1.02 | 1.01 | 0.917 | 0.923 | 0.827 | 0.823 | 0.806 | 0.771 | 0.72 | 0.785 | 0.794 | 0.666 | 0.528 | 0.536 | 0.489 | 0.413 | 0.957 | 0.949 | 1.05 | 0.912 |
| LU99A | 0.828 | 0.87 | 0.769 | 0.777 | 0.501 | 0.556 | 0.428 | 0.536 | 0.569 | 0.568 | 0.532 | 0.506 | 0.943 | 0.869 | 0.816 | 0.871 | 0.946 | 0.915 | 1.01 | 0.905 |
| PC-3 [JPC-3] | 1.07 | 1.05 | 1.02 | 0.967 | 0.948 | 0.985 | 0.922 | 0.887 | 0.946 | 1.08 | 0.997 | 0.969 | 0.477 | 0.483 | 0.483 | 0.473 | 1.05 | 1.04 | 1.05 | 0.953 |
| NCI-H596 | 0.921 | 0.885 | 1.05 | 0.791 | 1.02 | 1.08 | 1.07 | 0.954 | 0.876 | 1.13 | 0.989 | 1 | 0.633 | 0.735 | 0.77 | 0.723 | 1.07 | 0.948 | 0.967 | 1 |
| LCLC-97TM1 | 0.982 | 0.973 | 1.03 | 0.983 | 0.163 | 0.159 | 0.178 | 0.174 | 0.368 | 0.534 | 0.389 | 0.442 | 0.477 | 0.435 | 0.425 | 0.443 | 1.08 | 1.1 | 1.02 | 0.92 |
| NCI-H1993 | 0.716 | 0.899 | 0.763 | 0.846 | 0.692 | 0.793 | 0.815 | 0.667 | 0.873 | 0.896 | 0.813 | 0.944 | 0.516 | 0.523 | 0.516 | 0.549 | 1.06 | 1.07 | 0.872 | 0.919 |
| HARA | 0.777 | 0.932 | 1.09 | 0.809 | 0.92 | 0.979 | 1.06 | 0.978 | 1.11 | 1.23 | 1.06 | 0.987 | 0.484 | 0.479 | 0.554 | 0.435 | 0.96 | 0.894 | 1.06 | 0.889 |
| NCI-H460 | 1.03 | 1.02 | 1.02 | 0.992 | 0.773 | 0.875 | 0.713 | 0.689 | 1.03 | 0.895 | 0.925 | 0.851 | 0.535 | 0.482 | 0.53 | 0.498 | 1.04 | 0.975 | 0.978 | 0.957 |
| EKVX | 0.859 | 0.97 | 0.844 | 0.829 | 1.03 | 1.03 | 0.973 | 0.976 | 1.09 | 1.24 | 0.648 | 0.864 | 0.232 | 0.223 | 0.227 | 0.234 | 1.04 | 0.96 | 0.999 | 0.943 |
| NCI-H1755 | 0.982 | 0.953 | 0.895 | 0.895 | 1.03 | 1.05 | 0.95 | 0.959 | 0.916 | 0.97 | 0.862 | 0.888 | 0.645 | 0.594 | 0.636 | 0.625 | 1.05 | 0.997 | 0.993 | 0.929 |
| NCI-H2087 | 1.08 | 1.47 | 1.18 | 1.13 | 1.07 | 1.04 | 1.01 | 0.915 | 1.01 | 0.997 | 1.1 | 0.88 | 0.45 | 0.525 | 0.466 | 0.386 | 1.18 | 1.11 | 1.01 | 0.896 |
| H3255 | 0.985 | 0.669 | 1.09 | 0.917 | 0.916 | 0.983 | 0.928 | 0.897 | 0.865 | 0.817 | 0.968 | 0.759 | 0.397 | 0.385 | 0.414 | 0.343 | 0.924 | 0.953 | 0.948 | 0.96 |
| SK-MES-1 | 1.03 | 0.922 | 0.946 | 0.882 | 1.12 | 1.13 | 1.08 | 1.07 | 0.996 | 1.07 | 1.03 | 0.965 | 0.689 | 0.733 | 0.693 | 0.61 | 1.02 | 1.08 | 0.991 | 0.953 |
| NCI-H23 | 1.03 | 1.01 | 1.04 | 1.02 | 0.668 | 0.649 | 0.722 | 0.485 | 0.679 | 0.497 | 0.55 | 0.509 | 0.773 | 0.815 | 0.831 | 0.77 | 1.04 | 1.08 | 1.05 | 0.925 |
| HCC-827 | 1.07 | 1.02 | 1.03 | 1.1 | 1.04 | 1.01 | 0.962 | 0.942 | 0.9 | 1.03 | 0.945 | 0.892 | 0.389 | 0.383 | 0.417 | 0.364 | 1.07 | 1.03 | 1.06 | 0.987 |
| HCC-78 | 0.558 | 0.526 | 0.592 | 0.523 | 0.534 | 0.449 | 0.547 | 0.538 | 0.307 | 0.328 | 0.369 | 0.342 | 0.654 | 0.626 | 0.667 | 0.845 | 1.05 | 0.83 | 0.991 | 1.06 |
